Reference: ChEMBL document CHEMBL1687743, “Intravenous doripenem at 500 milligrams versus levofloxacin at 250 milligrams, with an option to switch to oral therapy, for treatment of complicated lower urinary tract infection and pyelonephritis” (Antimicrob Agents Chemother, 2009)
≈ marks a conversion by molar mass, not a printed value.

How the values were obtained:
Homo sapiens [1] = assay: Treatment emergent adverse event in intent-to-treat patient with complicated urinary tract infection assessed as vomiting at 500 […], iv administered every 8 hrs for 10 days; assay type: organism-based; design: route intravenous; conditions: in vivo
Homo sapiens [2] = assay: Drug related treatment emergent adverse event in intent-to-treat patient with complicated urinary tract infection assessed as upper abdominal pain at 500 […], iv administered every 8 hrs for 10 days; assay type: toxicity, organism-based; design: dose 500 […], route intravenous; conditions: in vivo
Homo sapiens [3] = assay: Treatment emergent adverse event in intent-to-treat patient with complicated urinary tract infection assessed as upper abdominal pain at 500 […], iv administered every 8 hrs for 10 days; assay type: organism-based; design: route intravenous; conditions: in vivo
Proteus mirabilis = assay: Antibacterial activity against Proteus mirabilis infected in microbiologically evaluable patient with UTI assessed as cure rate at 500 mg, iv administered every 8 hrs for 10 days measured at test-of-cure visit; assay type: functional
Escherichia coli [4] = assay: Antibacterial activity against Escherichia coli isolated from patient with urinary tract infection receiving drug at 500 mg, iv administered every 8 hrs for 10 days measured after post drug therapy; assay type: functional; conditions: Urine
Enterococcus avium = assay: Antibacterial activity against doripenem-resistant Enterococcus avium; assay type: functional
Homo sapiens [5] = assay: Treatment emergent adverse event in intent-to-treat patient with complicated urinary tract infection assessed as urinary tract infection at 500 […], iv administered every 8 hrs for 10 days; assay type: ADME, organism-based, Urine; design: route intravenous; conditions: in vivo
Homo sapiens [6] = assay: Treatment emergent adverse event in intent-to-treat patient with complicated urinary tract infection assessed as hypokalemia at 500 […], iv administered every 8 hrs for 10 days; assay type: ADME, organism-based, Urine; design: route intravenous; conditions: in vivo
Enterococcus faecium = assay: Antibacterial activity against Enterococcus faecium; assay type: functional
Homo sapiens [7] = assay: Treatment emergent adverse event in intent-to-treat patient with complicated urinary tract infection assessed as abdominal pain at 500 […], iv administered every 8 hrs for 10 days; assay type: ADME, organism-based, Urine; design: route intravenous; conditions: in vivo
Escherichia coli [8] = assay: Antibacterial activity against levofloxacin-resistant Escherichia coli infected in microbiologically evaluable patient with UTI assessed as cure rate at 500 mg, iv administered every 8 hrs for 10 days measured at test-of-cure visit; assay type: functional
Homo sapiens [9] = assay: Drug related treatment emergent adverse event in intent-to-treat patient with complicated urinary tract infection assessed as nausea at 500 […], iv administered every 8 hrs for 10 days; assay type: toxicity, organism-based; design: dose 500 […], route intravenous; conditions: in vivo
Escherichia coli [10] = assay: Antibacterial activity against Escherichia coli infected in microbiologically evaluable patient with UTI assessed as cure rate at 500 mg, iv administered every 8 hrs for 10 days measured at test-of-cure visit; assay type: functional
Homo sapiens [11] = assay: Drug related treatment emergent adverse event in intent-to-treat patient with complicated urinary tract infection assessed as >=1 adverse event at 500 mg/kg, iv administered every 8 hrs for 10 days; assay type: toxicity, organism-based, Urine; design: dose 500 mg/kg, route intravenous; conditions: in vivo
Homo sapiens [12] = assay: Treatment emergent adverse event in intent-to-treat patient with complicated urinary tract infection assessed as headache at 500 […], iv administered every 8 hrs for 10 days; assay type: ADME, organism-based, Urine; design: route intravenous; conditions: in vivo
Escherichia coli [13] = assay: Antibacterial activity against levofloxacin-resistant Escherichia coli infected in clinically evaluable patient with UTI assessed as cure rate at 500 mg, iv administered every 8 hrs for 10 days measured at test-of-cure visit; assay type: functional
Homo sapiens [14] = assay: Drug related treatment emergent adverse event in intent-to-treat patient with complicated urinary tract infection assessed as headache at 500 […], iv administered every 8 hrs for 10 days; assay type: toxicity, organism-based, Urine; design: dose 500 […], route intravenous; conditions: in vivo
Homo sapiens [15] = assay: Treatment emergent adverse event in intent-to-treat patient with complicated urinary tract infection assessed as insomnia at 500 […], iv administered every 8 hrs for 10 days; assay type: ADME, organism-based, Urine; design: route intravenous; conditions: in vivo
Homo sapiens [16] = assay: Treatment emergent adverse event in intent-to-treat patient with complicated urinary tract infection assessed as >=1 adverse event at 500 mg/kg, iv administered every 8 hrs for 10 days; assay type: organism-based, Urine; design: dose 500 mg/kg, route intravenous; conditions: in vivo
Homo sapiens [17] = assay: Treatment emergent adverse event in intent-to-treat patient with complicated urinary tract infection assessed as back pain at 500 […], iv administered every 8 hrs for 10 days; assay type: organism-based; design: route intravenous; conditions: in vivo
Staphylococcus aureus = assay: Antibacterial activity against Staphylococcus aureus; assay type: functional
Homo sapiens [18] = assay: Treatment emergent adverse event in intent-to-treat patient with complicated urinary tract infection assessed as constipation at 500 […], iv administered every 8 hrs for 10 days; assay type: ADME, organism-based; design: route intravenous; conditions: in vivo
Homo sapiens [19] = assay: Treatment emergent adverse event in intent-to-treat patient with complicated urinary tract infection assessed as asymptomatic bacteriuria at 500 […], iv administered every 8 hrs for 10 days; assay type: ADME, organism-based, Urine; design: route intravenous; conditions: in vivo
Homo sapiens [20] = assay: Treatment emergent adverse event in intent-to-treat patient with complicated urinary tract infection assessed as diarrhea at 500 […], iv administered every 8 hrs for 10 days; assay type: ADME, organism-based; design: route intravenous; conditions: in vivo
Homo sapiens [21] = assay: Drug related treatment emergent adverse event in intent-to-treat patient with complicated urinary tract infection assessed as phlebitis at 500 […], iv administered every 8 hrs for 10 days; assay type: toxicity, organism-based, Urine; design: dose 500 […], route intravenous; conditions: in vivo
Klebsiella pneumoniae = assay: Antibacterial activity against Klebsiella pneumoniae infected in microbiologically evaluable patient with UTI assessed as cure rate at 500 mg, iv administered every 8 hrs for 10 days measured at test-of-cure visit; assay type: functional
Homo sapiens [22] = assay: Treatment emergent adverse event in intent-to-treat patient with complicated urinary tract infection assessed as phlebitis at 500 […], iv administered every 8 hrs for 10 days; assay type: organism-based; design: route intravenous; conditions: in vivo
Enterococcus faecalis = assay: Antibacterial activity against Enterococcus faecalis; assay type: functional
Homo sapiens [23] = assay: Treatment emergent adverse event in intent-to-treat patient with complicated urinary tract infection assessed as nausea at 500 […], iv administered every 8 hrs for 10 days; assay type: organism-based; design: route intravenous; conditions: in vivo
Serratia marcescens = assay: Antibacterial activity against Serratia marcescens isolated from patient with urinary tract infection receiving drug at 500 mg, iv administered every 8 hrs for 10 days measured after post drug therapy; assay type: functional; conditions: Urine
Homo sapiens [24] = assay: Drug related treatment emergent adverse event in intent-to-treat patient with complicated urinary tract infection assessed as diarrhea at 500 […], iv administered every 8 hrs for 10 days; assay type: toxicity, organism-based; design: dose 500 […], route intravenous; conditions: in vivo

SMILES: C[C@@H](O)[C@H]1C(=O)N2C(C(=O)O)=C(S[C@@H]3CN[C@H](CNS(N)(=O)=O)C3)[C@H](C)[C@H]12 [DORIPENEM]
- Activity (Homo sapiens [1]): 5.1%
- Activity (Homo sapiens [2]): 0.5%
- Activity (Homo sapiens [3]): 4.5%
- Activity (Proteus mirabilis): 69.6%
- MIC (Escherichia coli [4]): 0.06 µg/mL (≈ 0.143 µM)
- MIC (Enterococcus avium): 128 µg/mL (≈ 304 µM)
- Activity (Homo sapiens [5]): 3.7%
- Activity (Homo sapiens [6]): 2.1%
- MIC (Enterococcus faecium): ≥ 16 µg/mL
- Activity (Homo sapiens [7]): 1.9%
- Activity (Escherichia coli [8]): 55%
- Activity (Homo sapiens [9]): 2.9%
- Activity (Escherichia coli [10]): 84.4%
- Activity (Homo sapiens [11]): 28.2%
- Activity (Homo sapiens [12]): 15.7%
- Activity (Escherichia coli [13]): 86%
- Activity (Homo sapiens [14]): 4.5%
- Activity (Homo sapiens [15]): 3.7%
- Activity (Homo sapiens [16]): 64%
- Activity (Homo sapiens [17]): 2.1%
- MIC (Staphylococcus aureus): ≥ 16 µg/mL
- Activity (Homo sapiens [18]): 5.9%
- Activity (Homo sapiens [19]): 3.7%
- Activity (Homo sapiens [20]): 5.6%
- Activity (Homo sapiens [21]): 2.4%
- Activity (Klebsiella pneumoniae): 83.3%
- Activity (Homo sapiens [22]): 3.7%
- MIC (Enterococcus faecalis): ≥ 16 µg/mL
- Activity (Homo sapiens [23]): 4.3%
- MIC (Serratia marcescens): 0.5 µg/mL (≈ 1.19 µM)
- Activity (Homo sapiens [24]): 4%
